From PMC11671526, “β-caryophyllene sensitizes hepatocellular carcinoma cells to chemotherapeutics and inhibits cell malignancy through targeting MAPK signaling pathway” (Frontiers in Pharmacology, 2024)

Tested on: HepG2 cells
Test: RNA-seq transcriptome analysis of differentially expressed genes
Assay type: cell-based, human
Conditions: BCP vs control HepG2, RNA-seq
Experimental: The quality and concentration of RNA were examined by MOPS RNA electrophoresis and Eppendorf BioSpectrometer. The transcriptome analysis was performed by BGI-Wuhan China. The RNA-seq dataset of this study is accessible in the Gene Expression Omnibus (GEO) with an access number of GSE276099. The sequence library for each sample was prepared using the BGISEQ-500 platform with a 50-bp single-end (SE50) format. […]2.2.1) was used to align the clean reads to the reference genome and alignment of the clean reads to the reference genes was carried out using Bowtie2 (v2.4.5) ([Langmead and Salzberg, 2012]; [Kim et al., 2015]). Gene expression levels were calculated by RSEM (v1.3.1) ([Li and Dewey, 2011]). Analysis of differential gene expression was performed using edgeR in the Bioconductor software package ([Robinson et al., 2010]). Using a standard protocol, the RNA samples were also examined by reverse transcription and quantitative polymerase chain reaction (RT-qPCR). In brief, for reverse transcription, total RNA (1 μg) and gDNA wiper Mix were incubated at 42°C for 2 min. The samples were immediately incubated with a master mix containing 10 pmol/μL of poly (dT) primers at 37°C for 15 min and 85°C for 5 s. To detect the expression of specific genes by qPCR analysis, gene-specific primers (shown in Supplementary Table S1) were mixed with the ChamQ Universal SYBER qPCR Master Mix and the reaction was conducted using the Roche Lightcycler 480. The GAPDH value was used to normalize the results of each gene. The RNA-seq data of BCP-treated HepG2 cells were screened for DEGs. Gene symbols were turned into Enterz ID using the org.Hs.eg.db Bio-conductor R package. The cluster profiler (v4.6.2) package was used to perform the Kyoto Encyclopedia of Genes and Genomes (KEGG) and Gene Ontology (GO) enrichment analyses ([Wu et al., 2021]). Following the Transcript per million (TPM) data of the dataset, the line chart, and heatmap were plotted using ggplot2 and pheatmap R packages, respectively.

Compound: C=C1CC/C=C(\C)CC[C@@H]2[C@@H]1CC2(C)C [BCP, β-caryophyllene]
- ODAD2 change: Up
- ODAD2 logFC: 0.6018
- PADI1 change: Down
- PADI1 logFC: -0.911
- PAN2 change: Up
- PAN2 logFC: 0.6394
- PAPLN change: Up
- PAPLN logFC: 0.648
- PARP10 change: Up
- PARP10 logFC: 0.961
- PDZK1IP1 change: Up
- PDZK1IP1 logFC: 0.6396
- PERM1 change: Up
- PERM1 logFC: 0.9379
- PGF change: Down
- PGF logFC: -1.184
- PGGHG change: Up
- PGGHG logFC: 0.7209
- PID1 change: Down
- PID1 logFC: -0.6654
- PLCD4 change: Down
- PLCD4 logFC: -1.595
- PLCH1 change: Up
- PLCH1 logFC: 1.418
- PLEKHF1 change: Up
- PLEKHF1 logFC: 0.8594
- PLEKHN1 change: Up
- PLEKHN1 logFC: 0.6105
- POU2F3 change: Down
- POU2F3 logFC: -1.5108
- PRDM12 change: Down
- PRDM12 logFC: -1.2196
- PRIMPOL change: Up
- PRIMPOL logFC: 0.639
- PROB1 change: Down
- PROB1 logFC: -0.6611
- PRSS56 change: Up
- PRSS56 logFC: 0.9346
- PTP4A3 change: Up
- PTP4A3 logFC: 0.9798
- PTPRR change: Up
- PTPRR logFC: 1.308
- RAET1E change: Down
- RAET1E logFC: -0.794
- RAET1L change: Down
- RAET1L logFC: -0.9044
- RASD2 change: Down
- RASD2 logFC: -0.5906
- RASL11A change: Down
- RASL11A logFC: -0.8207
- RHBDL3 change: Down
- RHBDL3 logFC: -0.6105
- S1PR1 change: Down
- S1PR1 logFC: -1.034
- SH2D5 change: Up
- SH2D5 logFC: 0.5827
- SHC3 change: Down
- SHC3 logFC: -0.7485
- SLC4A11 change: Down
- SLC4A11 logFC: -0.655
- SLC6A12 change: Down
- SLC6A12 logFC: -3.144
- SLC6A16 change: Down
- SLC6A16 logFC: -0.7923
- SLC12A3 change: Down
- SLC12A3 logFC: -0.7354
- SLC25A41 change: Down
- SLC25A41 logFC: -0.9215
- SMC1B change: Up
- SMC1B logFC: 1.162
- SMPDL3A change: Down
- SMPDL3A logFC: -0.7314
- SORBS1 change: Up
- SORBS1 logFC: 0.6679
- SP6 change: Down
- SP6 logFC: -0.8849
- ST3GAL5 change: Down
- ST3GAL5 logFC: -0.6552
- STAC change: Down
- STAC logFC: -0.9497
- STXBP6 change: Down
- STXBP6 logFC: -0.6612
- SYTL4 change: Down
- SYTL4 logFC: -1.384
- TCF7 change: Up
- TCF7 logFC: 0.7392
- TESPA1 change: Down
- TESPA1 logFC: -0.7534
- TEX9 change: Up
- TEX9 logFC: 0.7307
- TGFA change: Down
- TGFA logFC: -0.6404
- THRB change: Down
- THRB logFC: -0.6974
- TIAF1 change: Down
- TIAF1 logFC: -0.9875
- TLN2 change: Up
- TLN2 logFC: 0.6813
- TMEM17 change: Up
- TMEM17 logFC: 0.6031
- TMEM121 change: Down
- TMEM121 logFC: -0.7343
- TMEM158 change: Down
- TMEM158 logFC: -0.7403
- TMEM213 change: Down
- TMEM213 logFC: -1.017
- TMIE change: Up
- TMIE logFC: 1.064
- TMPPE change: Down
- TMPPE logFC: -0.812
- TNFRSF14 change: Up
- TNFRSF14 logFC: 1.214
- TOX change: Up
- TOX logFC: 0.9011
- TRABD2B change: Up
- TRABD2B logFC: 0.6053
- TSHZ2 change: Up
